The assay relates to erythrocytic stages of P. falciparum NF54. Kind of assay: Plasmodium falciparum in vitro assay, [3H] hypoxanthine incorporation. It counts as cell-based. The following applies: P. falciparum NF54 in human red blood cells, 48 h + 24 h incubation. The method, then: In Vitro Antimalarial Activity: Plasmodium falciparum In Vitro Assay In vitro activity against erythrocytic stages of P. falciparum in human red blood cells is determined using a [^3H] hypoxanthine incorporation assay. […] Thereafter, the parasite cultures incubated in screening medium containing washed human red blood cells at 2.5% hematocrit (0.3% parasitemia) are added to the serially diluted compounds and incubated in a humidifying atmosphere at 37° C., 4% CO2, 3% O2, and 93% N2. After 48 h, [^3H] hypoxanthine (0.5 μCi) is added to each well of a plate. The plates are incubated for a further 24 h under the same conditions then harvested with a Betaplate cell harvester (Wallac) and washed with distilled water. The dried filters are inserted into a plastic foil with 10 mL of scintillation fluid, and counted in a Betaplate liquid scintillation counter. IC50 values are calculated from sigmoidal inhibition curves using Microsoft Excel.

[1] abbreviates: Plasmodium falciparum, Erythrocyte, 72 h, screening medium with Albumax (5 g/L), read-out: IC50 on NF54 (with Albumax).
The mark [2] stands for this setting: Plasmodium falciparum, Erythrocyte, 72 h, screening medium with human serum (50% final concentration), read-out: IC50 on NF54 (with 50% Serum).

Read-outs that look alike come from different tables or passages of the source. Where only a bound is given, the exact number is not on record here.

For `CC(=O)N1CCN(c2ccc(CN(C(=O)C=Cc3ccc(C(F)(F)F)cc3)[C@@H](Cc3ccccc3)C(=O)N3CCN(Cc4ccc(N(C)C)cc4)CC3)cc2)CC1` [Example 11, (S)-N-[4-(4-Acetyl-piperazin-1-yl)-benzyl]-N-{1-benzyl-2-[4-(4-dimethylamino-benzyl)-piperazin-1-yl]-2-oxo-ethyl}-3-(4-trifluoromethyl-phenyl)-acrylamide], the IC50 – broadly, the concentration that inhibits the measured activity by half – was 4 nM under setting [1] and 21 nM under setting [2].
For `CC(=O)N1CCN(c2ccc(CN(C(=O)C=Cc3ccc(C(F)(F)F)nc3)[C@@H](Cc3ccccc3)C(=O)N3CCN(Cc4ccc(N(C)C)cc4)CC3)cc2)CC1` [Example 12, (S)-N-[4-(4-Acetyl-piperazin-1-yl)-benzyl]-N-{1-benzyl-2-[4-(4-dimethylamino-benzyl)-piperazin-1-yl]-2-oxo-ethyl}-3-(6-trifluoromethyl-pyridin-3-yl)-acrylamide], in that order: 17 nM and 74 nM.
The like results for `COc1ccc(C=CC(=O)N(Cc2ccc(N3CCN(C(C)=O)CC3)cc2)[C@@H](Cc2ccccc2)C(=O)N2CCN(Cc3ccc(N(C)C)cc3)CC2)cn1` [Example 13, (S)-N-[4-(4-Acetyl-piperazin-1-yl)-benzyl]-N-{1-benzyl-2-[4-(4-dimethylamino-benzyl)-piperazin-1-yl]-2-oxo-ethyl}-3-(6-methoxy-pyridin-3-yl)-acrylamide] were, in that order, 12 nM and 46 nM.
As to `CCOc1ccc(C=CC(=O)N(Cc2ccc(N3CCN(C(C)=O)CC3)cc2)[C@@H](Cc2ccccc2)C(=O)N2CCN(Cc3ccc(N(C)C)cc3)CC2)cn1` [Example 14, (S)-N-[4-(4-Acetyl-piperazin-1-yl)-benzyl]-N-{1-benzyl-2-[4-(4-dimethylamino-benzyl)-piperazin-1-yl]-2-oxo-ethyl}-3-(6-ethoxy-pyridin-3-yl)-acrylamide], the IC50 under setting [1] came to 3.7 nM and the IC50 under setting [2] stood at 20 nM.
On to `CC(=O)Nc1ccc(C=CC(=O)N(Cc2ccc(N3CCN(C(C)=O)CC3)cc2)[C@@H](Cc2ccccc2)C(=O)N2CCN(Cc3ccc(N(C)C)cc3)CC2)cc1` [Example 17, (S)-3-(4-Acetylamino-phenyl)-N-[4-(4-acetyl-perazin-1-yl)-benzyl]-N-{1-benzyl-2-[4-(4-dimethylamino-benzyl)-piperazin-1-yl]-2-oxo-ethyl}-acrylamide], for which the IC50 reads like this: (screening medium with Albumax (5 g/L), read-out: IC50 on NF54 (with Albumax)) 4.3 nM; (screening medium with human serum (50% final concentration), read-out: IC50 on NF54 (with 50% Serum)) 39 nM.
With `CC(=O)N1CCN(c2ccc(CN(C(=O)C=Cc3ccc(S(C)(=O)=O)cc3)[C@@H](Cc3ccccc3)C(=O)N3CCN(Cc4ccc(C#N)cc4)CC3)cc2)CC1` [Example 26, (S)-N-[4-(4-Acetyl-piperazin-1-yl)-benzyl]-N-{1-benzyl-2-[4-(4-cyano-benzyl)-piperazin-1-yl]-2-oxo-ethyl}-3-(4-methanesulfonyl-phenyl)-acrylamide], the IC50 reads like this: under setting [1], 18 nM; under setting [2], 33 nM.
The like results for `CC(=O)Nc1ccc(C=CC(=O)N(Cc2ccc(N3CCN(C(C)=O)CC3)cc2)[C@@H](Cc2ccccc2)C(=O)N2CCN(Cc3ccc(Cl)cc3)CC2)cc1` [Example 37, (S)-3-(4-Acetylamino-phenyl)-N-[4-(4-acetyl-piperazin-1-yl)-benzyl]-N-{1-benzyl-2-[4-(4-chloro-benzyl)-piperazin-1-yl]-2-oxo-ethyl}-acrylamide] were, in that order, 3.2 nM and 28 nM.
Regarding `CC(=O)N1CCN(c2ccc(CN(C(=O)C=Cc3ccc(C(F)(F)F)nc3)[C@@H](Cc3ccccc3)C(=O)N3CCN(Cc4ccc(N(C)CCO)cc4)CC3)cc2)CC1` [Example 51, (S)-N-[4-(4-Acetyl-piperazin-1-yl)-benzyl]-N-[1-benzyl-2-(4-{4-[(2-hydroxy-ethyl)-methyl-amino]-benzyl}-piperazin-1-yl)-2-oxo-ethyl]-3-(6-trifluoromethyl-pyridin-3-yl)-acrylamide], the IC50 is, setting by setting: under setting [1], 10.7 nM; under setting [2], 29.8 nM.
Turning to `COc1ccc(CN2CCN(C(=O)[C@H](Cc3ccccc3)N(Cc3ccc(N4CCN(C(C)=O)CC4)cc3)C(=O)C=Cc3ccc(C(F)(F)F)cc3)CC2)cc1` [Example 63, (S)-N-[4-(4-Acetyl-piperazin-1-yl)-benzyl]-N-{1-benzyl-2-[4-(4-methoxy-benzyl)-piperazin-1-yl]-2-oxo-ethyl}-3-(4-trifluoromethyl-phenyl)-acrylamide], the IC50 runs as follows: under setting [1], 3.2 nM; under setting [2], 17.8 nM.
The like results for `CC(=O)N1CCN(c2ccc(CN(C(=O)C=Cc3ccc(C(F)(F)F)cc3)[C@@H](Cc3ccccc3)C(=O)N3CCN(Cc4ccc([N+](=O)[O-])cc4)CC3)cc2)CC1` [Example 64, (S)-N-[4-(4-Acetyl-piperazin-1-yl)-benzyl]-N-{1-benzyl-2-[4-(4-nitro-benzyl)-piperazin-1-yl]-2-oxo-ethyl}-3-(4-trifluoromethyl-phenyl)-acrylamide] were, in that order, 3.5 nM and 43 nM.
The like results for `CC(=O)N1CCN(c2ccc(CN(C(=O)C=Cc3ccc(C(F)(F)F)cc3)[C@@H](Cc3ccccc3)C(=O)N3CCN(Cc4ccc(OC(C)C)cc4)CC3)cc2)CC1` [Example 65, (S)-N-[4-(4-Acetyl-piperazin-1-yl)-benzyl]-N-{1-benzyl-2-[4-(4-isopropoxy-benzyl)-piperazin-1-yl]-2-oxo-ethyl}-3-(4-trifluoromethyl-phenyl)-acrylamide] were, in that order, 2.8 nM and 14 nM.
For the molecule `CC(=O)N1CCN(c2ccc(CN(C(=O)C=Cc3ccccc3)[C@@H](Cc3ccccc3)C(=O)N3CCN(Cc4ccc(N(C)C)cc4)CC3)cc2)CC1` [Example 66, (S)-N-[4-(4-Acetyl-piperazin-1-yl)benzyl]-N-{1-(4-(4-(dimethylamino)benzyl)piperazin-1-yl)-1-oxo-3-phenylpropan-2-yl}cinnamamide], the IC50 reads like this: under setting [1], 24.6 nM; under setting [2], 113 nM.
For `CC(=O)N1CCN(c2ccc(CN(C(=O)C=Cc3ccc(C)cc3)[C@@H](Cc3ccccc3)C(=O)N3CCN(Cc4ccc(N(C)C)cc4)CC3)cc2)CC1` [Example 67, (S)-N-[4-(4-Acetyl-piperazin-1-yl)benzyl]-N-{1-[4-(4-(dimethylamino)benzyl)piperazin-1-yl]-1-oxo-3-phenylpropan-2-yl}-3-(p-tolyl)acrylamide], in that order: < 3.1 nM and 17.5 nM.
The like results for `CCCc1ccc(C=CC(=O)N(Cc2ccc(N3CCN(C(C)=O)CC3)cc2)[C@@H](Cc2ccccc2)C(=O)N2CCN(Cc3ccc(N(C)C)cc3)CC2)cc1` [Example 68, (S)-N-[4-(4-Acetyl-piperazin-1-yl)benzyl]-N-{1-(4-(4-(dimethylamino)benzyl)piperazin-1-yl)-1-oxo-3-phenylpropan-2-yl}-3-(4-propylphenyl)acrylamide] were, in that order, 0.7 nM and 8 nM.
The like results for `COc1ccc(C=CC(=O)N(Cc2ccc(N3CCN(C(C)=O)CC3)cc2)[C@@H](Cc2ccccc2)C(=O)N2CCN(Cc3ccc(N(C)C)cc3)CC2)cc1` [Example 69, (S)-N-[4-(4-Acetyl-piperazin-1-yl)benzyl]-N-{1-(4-(4-(dimethylamino)benzyl)piperazin-1-yl)-1-oxo-3-phenylpropan-2-yl}-3-(4-methoxyphenyl)acrylamide] were, in that order, < 3.1 nM and 17 nM.
Take `CC(=O)c1ccc(C=CC(=O)N(Cc2ccc(N3CCN(C(C)=O)CC3)cc2)[C@@H](Cc2ccccc2)C(=O)N2CCN(Cc3ccc(N(C)C)cc3)CC2)cc1` [Example 70, (S)-3-(4-Acetyl-phenyl)-N-[4-(4-acetyl-piperazin-1-yl)benzyl]-N-{1-(4-(4-(dimethylamino)benzyl)piperazin-1-yl)-1-oxo-3-phenylpropan-2-yl}acrylamide]: the IC50 is < 3.1 nM under setting [1] and 16 nM under setting [2].
Turning to `CC(=O)N1CCN(c2ccc(CN(C(=O)C=Cc3ccc(C#N)cc3)[C@@H](Cc3ccccc3)C(=O)N3CCN(Cc4ccc(N(C)C)cc4)CC3)cc2)CC1` [Example 71, (S)-N-[4-(4-Acetyl-piperazin-1-yl)benzyl]-3-(4-cyanophenyl)-N-{1-(4-(4-(dimethylamino)benzyl)piperazin-1-yl)-1-oxo-3-phenylpropan-2-yl}acrylamide], the IC50 runs as follows: under setting [1], 18 nM; under setting [2], 62 nM.
On to `CC(=O)N1CCN(c2ccc(CN(C(=O)C=Cc3ccc(F)cc3)[C@@H](Cc3ccccc3)C(=O)N3CCN(Cc4ccc(N(C)C)cc4)CC3)cc2)CC1` [Example 72, (S)-N-[4-(4-Acetyl-piperazin-1-yl)benzyl]-N-{1-(4-(4-(dimethylamino)benzyl)piperazin-1-yl)-1-oxo-3-phenylpropan-2-yl}-3-(4-fluorophenyl)acrylamide], for which the 50% inhibitory concentration (IC50) under setting [1] worked out at 10 nM and the IC50 under setting [2] came to 91 nM.
For `CC(=O)N1CCN(c2ccc(CN(C(=O)C=Cc3ccc(Cl)cc3)[C@@H](Cc3ccccc3)C(=O)N3CCN(Cc4ccc(N(C)C)cc4)CC3)cc2)CC1` [Example 73, (S)-N-[4-(4-Acetyl-piperazin-1-yl)benzyl]-3-(4-chlorophenyl)-N-{1-(4-(4-(dimethylamino)benzyl)piperazin-1-yl)-1-oxo-3-phenylpropan-2-yl}acrylamide], the IC50 under setting [1] is 3.3 nM and the IC50 under setting [2] worked out at 26 nM.
